According to ChEMBL document CHEMBL1201862, “PubChem BioAssay data set” (2004):
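Step 1: Grow cells in 96-well plates. Step 2: Expose to compound for 48 hours at 5 concentrations. Step 3: Interpolate endpoints linearly; if unreached, use highest concentration. Here, GI50 denotes the concentration required for 50% inhibition of growth.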 Activity calls are given as the source filed them. Cut-off read from the data, not from the text of the source: active = GI50 up to about 1.1 µM and inactive = higher.

Tests used:
Test in all cases: NCI tumour cell line growth inhibition, 48 h
SF-268 = system: SF-268
BT-549 = system: BT-549
SNB-75 = system: SNB-75
NCI-H23 = system: NCI-H23
HL-60 = system: HL-60
HCT-116 = system: HCT-116
786-0 = system: 786-0
OVCAR-8 = system: OVCAR-8
A498 = system: A498
HT-29 = system: HT-29
SK-MEL-2 = system: SK-MEL-2
UACC-257 = system: UACC-257
T47D = system: T47D
MDA-MB-231 = system: MDA-MB-231
RXF 393 = system: RXF 393
HCC 2998 = system: HCC 2998
LOX IMVI = system: LOX IMVI
NCI-H226 = system: NCI-H226
M14 = system: M14
UO-31 = system: UO-31

| SMILES | GI50 (SF-268) | GI50 (BT-549) | GI50 (SNB-75) | GI50 (NCI-H23) | GI50 (HL-60) | GI50 (HCT-116) | GI50 (786-0) | GI50 (OVCAR-8) | GI50 (A498) | GI50 (HT-29) | GI50 (SK-MEL-2) | GI50 (UACC-257) | GI50 (T47D) | GI50 (MDA-MB-231) | GI50 (RXF 393) | GI50 (HCC 2998) | GI50 (LOX IMVI) | GI50 (NCI-H226) | GI50 (M14) | GI50 (UO-31) |
| --- | --- | --- | --- | --- | --- | --- | --- | --- | --- | --- | --- | --- | --- | --- | --- | --- | --- | --- | --- | --- |
| C=C(CCC/C(C)=C/C=C/[C@]1(C)CCCc2ccoc21)CC(=O)O | > 100 µM (inactive) | 79.1 µM (inactive) | > 100 µM (inactive) | > 100 µM (inactive) | 43.6 µM (inactive) | 60 µM (inactive) | > 100 µM (inactive) | > 100 µM (inactive) | > 100 µM (inactive) | > 100 µM (inactive) | > 100 µM (inactive) | > 100 µM (inactive) | > 100 µM (inactive) | > 100 µM (inactive) | > 100 µM (inactive) | > 100 µM (inactive) | > 100 µM (inactive) | > 100 µM (inactive) | > 100 µM (inactive) | > 100 µM (inactive) |
| c1ccc2c(c1)c1c3n2-c2cc(on2)C3CCC1 (stereo not given) | > 100 µM (inactive) | > 100 µM (inactive) | > 100 µM (inactive) | > 100 µM (inactive) | > 100 µM (inactive) | > 100 µM (inactive) | > 100 µM (inactive) | > 100 µM (inactive) | > 100 µM (inactive) | > 100 µM (inactive) | > 100 µM (inactive) | > 100 µM (inactive) | > 100 µM (inactive) | > 100 µM (inactive) | > 100 µM (inactive) | > 100 µM (inactive) | > 100 µM (inactive) | > 100 µM (inactive) | > 100 µM (inactive) | > 100 µM (inactive) |
| COc1ccc2c(c1)c(=O)c1c(NCCNCCO)ccc3c(=O)n(CCN(C)C)c(=O)n2c31 | 0.103 µM (active) | 0.615 µM (active) | 0.0933 µM (active) | 0.0637 µM (active) | > 100 µM (inactive) | < 0.0186 µM (active) | < 0.0117 µM (active) | 0.0604 µM (active) | 0.116 µM (active) | 0.0352 µM (active) | 0.243 µM (active) | 0.261 µM (active) | 0.0769 µM (active) | 0.132 µM (active) | 0.114 µM (active) | < 0.0337 µM (active) | 0.0198 µM (active) | 0.148 µM (active) | 0.27 µM (active) | 0.182 µM (active) |
| c1ccc2sc(SSSc3nc4ccccc4s3)nc2c1 | > 100 µM (inactive) | > 100 µM (inactive) | > 100 µM (inactive) | > 100 µM (inactive) | 49.2 µM (inactive) | > 100 µM (inactive) | 44.4 µM (inactive) | 55.6 µM (inactive) | > 100 µM (inactive) | 35.7 µM (inactive) | > 100 µM (inactive) | 49.8 µM (inactive) | 32 µM (inactive) | > 100 µM (inactive) | > 100 µM (inactive) | > 100 µM (inactive) | 19.1 µM (inactive) | > 100 µM (inactive) | > 100 µM (inactive) | > 100 µM (inactive) |
| CC1CCC2(C(=O)O)CCC3(C)C(=CCC4C5(C)CC(O)C(O)C(C)(CO)C5C(O)CC43C)C2C1C (stereo not given) | 28.5 µM (inactive) | 31.7 µM (inactive) | 28.1 µM (inactive) | 65.8 µM (inactive) | 20.2 µM (inactive) | 5.65 µM (inactive) | 3.29 µM (inactive) | 21.1 µM (inactive) | 24.3 µM (inactive) | > 88.5 µM (inactive) | 19.4 µM (inactive) | 98.4 µM (inactive) | 37.4 µM (inactive) | 39.9 µM (inactive) | 31.3 µM (inactive) | 35.9 µM (inactive) | 20.5 µM (inactive) | > 79.6 µM (inactive) | > 100 µM (inactive) | > 100 µM (inactive) |
| CCOC(=O)C1(Cc2ccccc2)CCN(C(=O)c2ccccc2)C2C1C2(Cl)Cl (stereo not given) | 29 µM (inactive) | 25.2 µM (inactive) | 23.1 µM (inactive) | 23.5 µM (inactive) | 12.2 µM (inactive) | 15 µM (inactive) | 20.1 µM (inactive) | 28.3 µM (inactive) | 18.8 µM (inactive) | 16.6 µM (inactive) | 15.6 µM (inactive) | 15.2 µM (inactive) | 14.1 µM (inactive) | 17.1 µM (inactive) | 16 µM (inactive) | 14.5 µM (inactive) | 18.4 µM (inactive) | 23.6 µM (inactive) | 18.3 µM (inactive) | 28.4 µM (inactive) |
| Oc1cccc2cc(Br)cnc12 | 2.33 µM (inactive) | 28.1 µM (inactive) | 18 µM (inactive) | 5.92 µM (inactive) | 1.05 µM (active) | 4.97 µM (inactive) | 31 µM (inactive) | 3.45 µM (inactive) | 27.5 µM (inactive) | 23.1 µM (inactive) | 24.5 µM (inactive) | 4.78 µM (inactive) | 4.3 µM (inactive) | 4.35 µM (inactive) | 16.7 µM (inactive) | 27.9 µM (inactive) | 4.1 µM (inactive) | 27.5 µM (inactive) | 9.14 µM (inactive) | 6.98 µM (inactive) |
| COC(=O)C(Cc1nc2ccccc2nc1O)C(=O)C(=O)Nc1cc(C(F)(F)F)ccc1Cl (stereo not given) | 14.2 µM (inactive) | 14.9 µM (inactive) | 18.6 µM (inactive) | 14.2 µM (inactive) | 10.3 µM (inactive) | 18.2 µM (inactive) | 12.6 µM (inactive) | 12.1 µM (inactive) | 24 µM (inactive) | 15.3 µM (inactive) | 16.1 µM (inactive) | 28.3 µM (inactive) | 15.1 µM (inactive) | 22.2 µM (inactive) | 13.8 µM (inactive) | 13.6 µM (inactive) | 16.2 µM (inactive) | 18 µM (inactive) | 16.7 µM (inactive) | 15.5 µM (inactive) |
| CC1(C)CCCC2OC2CCC(C)(C)C1=O (stereo not given) | > 100 µM (inactive) | > 100 µM (inactive) | > 100 µM (inactive) | > 100 µM (inactive) | > 100 µM (inactive) | > 100 µM (inactive) | > 100 µM (inactive) | > 100 µM (inactive) | > 100 µM (inactive) | > 100 µM (inactive) | > 100 µM (inactive) | > 100 µM (inactive) | > 100 µM (inactive) | > 100 µM (inactive) | > 100 µM (inactive) | > 100 µM (inactive) | > 100 µM (inactive) | > 100 µM (inactive) | > 100 µM (inactive) | > 100 µM (inactive) |
| CC(=O)Oc1ccc2c3c1[C@@H]1O[C@@H]1c1cccc(c1-3)[C@@H]1O[C@H]21 | 2.11 µM (inactive) | 1.87 µM (inactive) | 1.63 µM (inactive) | 1.63 µM (inactive) | 0.883 µM (active) | 1.66 µM (inactive) | 1.48 µM (inactive) | 1.54 µM (inactive) | 2.19 µM (inactive) | 1.81 µM (inactive) | 2.37 µM (inactive) | 2.43 µM (inactive) | 2.14 µM (inactive) | 2.02 µM (inactive) | 1.36 µM (inactive) | 2 µM (inactive) | 0.962 µM (active) | 18.2 µM (inactive) | 1.72 µM (inactive) | 1.52 µM (inactive) |
| C[C@@H](CC(=O)OCc1ccccc1)OC1OC(COC(=O)C(C)(C)C)C(OC(=O)C(C)(C)C)C(OC(=O)C(C)(C)C)C1OC(=O)C(C)(C)C (stereo not given in full) | > 100 µM (inactive) | > 100 µM (inactive) | > 100 µM (inactive) | > 100 µM (inactive) | > 100 µM (inactive) | > 100 µM (inactive) | > 100 µM (inactive) | > 100 µM (inactive) | > 100 µM (inactive) | > 100 µM (inactive) | > 100 µM (inactive) | > 100 µM (inactive) | > 100 µM (inactive) | > 100 µM (inactive) | > 100 µM (inactive) | > 100 µM (inactive) | > 100 µM (inactive) | > 100 µM (inactive) | > 100 µM (inactive) | > 100 µM (inactive) |
